Experimental data published in PMC10396955, “2-Oxabicyclo[2.1.1]hexanes as saturated bioisosteres of the ortho-substituted phenyl ring” (Nature Chemistry, 2023).
≈ marks a conversion by molar mass, not a printed value. Read-outs that look alike come from different tables or passages of the source. One block for each molecule: values may come before it.

What was measured:
[1] = Kinetic solubility in phosphate-buffered saline, pH 7.4; assay type: physicochemical; details: 25 °C, pH 7.4, aqueous buffer, kinetic from dmso stock
Experimental: Analysis of Aqueous Solubility […]
compound (Ondansetron) were assessed for kinetic solubility in phosphate-buffered saline, pH […]
Phosphate buffered saline, pH 7.4 (Sigma-Aldrich, USA; Cat #P3813) […]
MultiScreen HTS 96 Well Filter Plates (Millipore, Ireland; Cat # MSGVS2210) […]
Matrix Multichannel Electronic Pipette 2-125 µL, 5-250 µL, 15-1250 µL (Thermo Scientific, […]
Vacuum pump (Millipore, USA; Model # XX5500000)
The measurements were performed using SpectraMax Plus reader in UV-Vis mode. Acquisition and analysis of the data were performed using SoftMax Pro v.5.4 (Molecular Devices) and Excel […]
Kinetic solubility assay was performed according to the Enamine’s aqueous solubility SOP.
Briefly, using a 20 mM stock solution of the compound in 100% DMSO dilutions were prepared to a theoretical concentration of 400 μM in duplicates in phosphate-buffered saline pH 7.4 […]
for two hours and then filtered through HTS filter plates using a vacuum manifold. The filtrates of test compounds were diluted 2-fold with acetonitrile with 2% DMSO before measuring.
In parallel, compound dilutions in acetonitrile/PBS (1:1) were prepared to theoretical […]
DMSO to generate calibration curves. Ondansetron was used as reference compound to control proper assay performance. 200 μl of each sample was transferred to 96-well plate and measured in 200-550 nm range with 5 nm step.
The concentrations of compounds in PBS filtrate are calculated using a dedicated Microsoft Excel calculation script. Proper absorbance wavelengths for calculations are selected for each compound manually based on absorbance maximums (absolute absorbance unit values for the minimum and maximum concentration points within 0 – 3 OD range). Each of the final datasets is additionally visually evaluated by the operator and goodness of fit (R2) is calculated for each calibration curve. The effective range of this assay is approximately 2-400 μM and the […]

Fusarium oxysporum = assay: Antifungal activity, agar well diffusion method; assay type: cell-based; details: for zone of inhibition at 3.9 µg/mL / zone of inhibition at […] / zone of inhibition at 15.6 µg/mL / zone of inhibition at 31.25 µg/mL / zone of inhibition at 62.5 µg/mL / zone of inhibition at 125 µg/mL / zone of inhibition at 250 µg/mL / zone of inhibition at 500 µg/mL / zone of inhibition at 1000 µg/mL: Fusarium oxysporum, zones st (static growth), read-out: Diameter of inhibition zone; for zone of inhibition at 3.9 µg/mL: 0.0039 mg/mL; for zone of inhibition at […]: 0.0078 mg/mL; for zone of inhibition at 15.6 µg/mL: 0.0156 mg/mL; for zone of inhibition at 31.25 µg/mL: 0.03125 mg/mL; for zone of inhibition at 62.5 µg/mL: 0.0625 mg/mL; for zone of inhibition at 125 µg/mL: 0.125 mg/mL; for zone of inhibition at 250 µg/mL: 0.25 mg/mL; for zone of inhibition at 500 µg/mL: 0.5 mg/mL; for zone of inhibition at 1000 µg/mL: 1 mg/mL, 40 µl per well, 25 °C, 72 h; for lowest inhibition concentration: agar well diffusion, tested 0.0039-1.0 mg/mL
Description: (§1) The agar well diffusion method is widely used to evaluate the antimicrobial activity of different substances (S. Magaldi, S. Mata-Essayag, C. Hartung de Capriles, et al. Well diffusion for antifungal susceptibility testing, Int. J. Infect. Dis. 8, 2004 , 39–45; C. Valgas, S. M. De Souza, E. F. A. Smânia, et al. Screening methods to determine antibacterial activity of natural products. Braz. J. Microbiol. 38 , 2007 , 369–380). Similarly to the procedure used in a disk-diffusion method, the agar plate surface is inoculated by spreading a volume of the microbial inoculum over the entire agar surface. Then, a hole with a diameter of 6 to 8 mm is punched aseptically with a sterile cork borer or a tip, and a volume […] of the antimicrobial agent or extract solution at desired concentration is introduced into the well. Then, agar plates are incubated under suitable conditions depending upon the test microorganism. The antimicrobial agent diffuses in the agar medium and inhibits the growth of the microbial strain tested (M. Balouiri, M. Sadiki, S. K. Ibnsouda. Methods for in vitro evaluating […]
(§2) Agar well diffusion method is a qualitative method used to measure the ability of compounds to inhibit microbial growth. This test is a quick and easy way to measure and compare levels of inhibitory […]
(§3) Antifungal activity of the synthetic compounds using agar well diffusion The compunds were tested towards plant pathogens Fusarium oxysporum Schltdl. and F. verticillioides (Sacc.) Nirenberg isolated from crops. Antifungal activity of the synthetic compounds was evaluated with using of an agar well diffusion method based on a disk diffusion assay for testing filamentous fungi (CLSI M51-A) [CLSI. Method for Antifungal Disk Diffusion Susceptibility Testing of Nondermatophyte Filamentous Fungi; Approved Guideline.CLSI document M51-A. Wayne, PA:
(§4) Clinical and Laboratory Standards Institute; 2010. This method is standardized for Altenaria , Aspergillus, Bipolaris , Fusarium , order Mucorales etc.
(§5) Preparation of synthetic compounds for mycological assay
(§6) Solutions of fungicides and its analogs were diluted in dimethyl sulfoxide (DMSO) to produce the […]
(§7) Antifungal well diffusion method
(§8) The fungal strains were cultured on potato dextrose agar slants (PDA, Eur. Pharm.) and incubated at 25 °C for 5 days. Sterile distilled water was used to cover and resuspend the colonies. Suspension of […]
(§9) conidia was adjusted to inoculums 5×10^6 conidia/mL. The suspension was further diluted in warm PDA 1:10 to obtain final working inoculums 5×10^5 conidia/mL.
(§10) Polypropylene cylinders (d, 5 mm) were placed on the surface and wells punched in the medium were used as reservoir of the test substances in different concentrations. 40 µl of solutions containing 0.0039-1.0 mg/mL of a test compound was added into the wells.
(§11) Each compound was tested in triplicate at different concentrations. Growth control was a well with 40 µl of DMSO, which was used for test components dilution.
(§12) Plates incubated at 25 °C for 72 h. The test compounds at known concentration into contact with an inoculated medium then exerts a growth-inhibiting effect then a clear zone (the zone of inhibition) appears around the test product. Diameter of a clear zone around the well is measured at the end of the incubation period in millimeters. If the fungal strain is susceptible to the antifungal agent, then a zone of inhibition appears on the agar plate. If it is resistant to the test compound, then no zone is evident.
(§13) The size of the zone of inhibition is usually related to the level of antifungal activity present in the […]
(§14) The growth rate of Fusarium oxysporum and F. verticillioides for each well was determined visually and compared with the growth of control.
(§15) As shown in the table the antifungal activity of the 6 compounds, - Fluxapyroxad, compound 28, compound 29, Boscalid, compound 30, compound 31, - were tested against plant pathogenic fungal […]
(§16) toward Fusarium oxysporum (Table S5, Figure S16). Inhibition zones of all compounds characterized […]

Fusarium verticillioides = assay: Antifungal activity, agar well diffusion method; assay type: cell-based; details: for zone of inhibition at 3.9 µg/mL: 0.0039 mg/mL; for zone of inhibition at […]: 0.0078 mg/mL; for zone of inhibition at 15.6 µg/mL: 0.0156 mg/mL; for zone of inhibition at 31.25 µg/mL: 0.03125 mg/mL; for zone of inhibition at 62.5 µg/mL: 0.0625 mg/mL; for zone of inhibition at 250 µg/mL: 0.25 mg/mL; for zone of inhibition at 500 µg/mL: 0.5 mg/mL; for zone of inhibition at 1000 µg/mL: 1 mg/mL, 40 µl per well, 25 °C, 72 h; for lowest inhibition concentration: agar well diffusion, tested 0.0039-1.0 mg/mL
Description: as §1, §2, §3, §4, §5, §6, §7, §8, §9, §10, §11, §12, §13, §14, §15, §16

[2] = Fusarium verticillioides, 0 = absence of antifungal activity, read-out: Diameter of inhibition zone

SMILES: O=C(Nc1ccccc1-c1ccc(Cl)cc1)c1cccnc1Cl [Boscalid, reference compound]
solubility at 2 h ([1]; PBS solubility, pH 7.4, Incubation 1): 9 µM (≈ 3.09 µg/mL) | solubility at 2 h ([1]; PBS solubility, pH 7.4, Incubation 2): 13 µM (≈ 4.46 µg/mL) | solubility at 2 h ([1]; Solubility): 11 µM (≈ 3.78 µg/mL) | zone of inhibition at 3.9 µg/mL (Fusarium oxysporum): 9 ± 0.6 mm | zone of inhibition at […] (Fusarium oxysporum): 9 ± 1.7 mm | zone of inhibition at 15.6 µg/mL (Fusarium oxysporum): 11 ± 1.5 mm | zone of inhibition at 31.25 µg/mL (Fusarium oxysporum): 12 ± 1.7 mm | zone of inhibition at 62.5 µg/mL (Fusarium oxysporum): 24 ± 1 mm | zone of inhibition at 125 µg/mL (Fusarium oxysporum): 25 mm | zone of inhibition at 250 µg/mL (Fusarium oxysporum): 30 mm | zone of inhibition at 500 µg/mL (Fusarium oxysporum): 31 ± 1.2 mm | zone of inhibition at 1000 µg/mL (Fusarium oxysporum): 39 ± 0.6 mm | lowest inhibition concentration (Fusarium oxysporum): 0.0039 mg/mL | zone of inhibition at 3.9 µg/mL (Fusarium verticillioides; [2]): 0 mm | zone of inhibition at […] (Fusarium verticillioides; [2]): 11 ± 1 mm | zone of inhibition at 15.6 µg/mL (Fusarium verticillioides; [2]): 24 ± 1.5 mm | zone of inhibition at 31.25 µg/mL (Fusarium verticillioides; [2]): 28 ± 1 mm | zone of inhibition at 62.5 µg/mL (Fusarium verticillioides; [2]): 30 ± 0.6 mm | zone of inhibition at 250 µg/mL (Fusarium verticillioides; [2]): 39 ± 0.6 mm | zone of inhibition at 500 µg/mL (Fusarium verticillioides; [2]): 40 ± 0.6 mm | zone of inhibition at 1000 µg/mL (Fusarium verticillioides; [2]): 44 ± 1.2 mm | lowest inhibition concentration (Fusarium verticillioides): 0.0078 mg/mL

solubility at 2 h ([1]; phosphate-buffered saline, Table S1, incubation 1, read-out: PBS solubility, pH 7.4, Incubation 1): 151 µM (≈ 58.5 µg/mL) | solubility at 2 h ([1]; phosphate-buffered saline, Table S1, incubation 2, read-out: PBS solubility, pH 7.4, Incubation 2): 158 µM (≈ 61.2 µg/mL) | solubility at 2 h ([1]; phosphate-buffered saline, experimental kinetic solubility in phosphate-buffered saline at pH 7.4, Fig. 3, read-out: Solubility): 155 µM (≈ 60 µg/mL)
SMILES: Cn1cc(C(=O)N[C@@H]2[C@H]3C[C@]2(c2cc(F)c(F)c(F)c2)CO3)c(C(F)F)n1 (relative stereo) [Compound 29]
zone of inhibition at 3.9 µg/mL (Fusarium oxysporum): 9 ± 1.2 mm | zone of inhibition at […] (Fusarium oxysporum): 13 ± 1.5 mm | zone of inhibition at 15.6 µg/mL (Fusarium oxysporum): 14 ± 1.2 mm | zone of inhibition at 31.25 µg/mL (Fusarium oxysporum): 18 ± 1.5 mm | zone of inhibition at 62.5 µg/mL (Fusarium oxysporum): 18 ± 0.6 mm | zone of inhibition at 125 µg/mL (Fusarium oxysporum): 23 ± 0.6 mm | zone of inhibition at 250 µg/mL (Fusarium oxysporum): 32 ± 1.7 mm | zone of inhibition at 500 µg/mL (Fusarium oxysporum): 36 ± 1 mm | zone of inhibition at 1000 µg/mL (Fusarium oxysporum): 38 ± 1.53 mm | lowest inhibition concentration (Fusarium oxysporum): 0.0039 mg/mL | zone of inhibition at 3.9 µg/mL (Fusarium verticillioides; [2]): 0 mm | zone of inhibition at […] (Fusarium verticillioides; [2]): 10 mm | zone of inhibition at 15.6 µg/mL (Fusarium verticillioides; [2]): 15 ± 0.6 mm | zone of inhibition at 31.25 µg/mL (Fusarium verticillioides; [2]): 26 ± 1.2 mm | zone of inhibition at 62.5 µg/mL (Fusarium verticillioides; [2]): 31 ± 1.2 mm | zone of inhibition at 125 µg/mL (Fusarium verticillioides; Fusarium verticillioides, 0.125 mg/mL, 0 = absence of antifungal activity, read-out: Diameter of inhibition zone): 35 ± 1 mm | zone of inhibition at 250 µg/mL (Fusarium verticillioides; [2]): 39 ± 1.2 mm | zone of inhibition at 500 µg/mL (Fusarium verticillioides; [2]): 41 ± 1.7 mm | zone of inhibition at 1000 µg/mL (Fusarium verticillioides; [2]): 45 ± 0.6 mm | lowest inhibition concentration (Fusarium verticillioides): 0.0078 mg/mL
